These results are taken from patent US20260055152A1, “INTRACELLULAR CX3CL1 DOMAIN PEPTIDES AND USES THEREOF” (University of Connecticut, priority 2022, published 2026).

In the assay the test system is Akt. Briefly: Akt inhibition assay in cultured N2A cells. In kind it is cell-based, mouse.

For `NC1(c2ccc(-c3nc4ccn5c(=O)[nH]nc5c4cc3-c3ccccc3)cc2)CCC1` [MK2206], under “N2A cells treated with 2 μM Tet34 or controls 24 hrs, then 2 μM MK2206 3hrs”, the “phosphorylation of GSK3β and Foxo3” value is “diminish”. Under “N2A cultures with Tet-CX3CL1-ICD peptides in presence of MK2206”, the “Tet34 induced effects on Foxo3 phosphorylation” value was “abolished”.
